Measured values reported in ChEMBL document CHEMBL1153442, “Synthesis and in vitro evaluation of sulfonamide isatin Michael acceptors as small molecule inhibitors of caspase-6” (J Med Chem, 2009).

Experiments:
Caspase-6 = target: T1, Caspase-6 (Homo sapiens, UniProt P55212); assay: Inhibition of human recombinant caspase 6 assessed as accumulation of fluorogenic product by fluorometric assay
T1 sequence (P55212 whole entry): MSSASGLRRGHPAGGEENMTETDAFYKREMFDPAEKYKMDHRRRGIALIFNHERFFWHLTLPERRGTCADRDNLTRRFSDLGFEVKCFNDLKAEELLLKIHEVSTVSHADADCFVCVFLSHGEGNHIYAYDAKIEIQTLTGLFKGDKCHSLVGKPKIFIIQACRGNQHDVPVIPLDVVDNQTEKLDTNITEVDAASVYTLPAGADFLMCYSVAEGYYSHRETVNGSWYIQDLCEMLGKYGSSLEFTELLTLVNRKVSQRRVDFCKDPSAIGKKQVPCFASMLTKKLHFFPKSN

Caspase-7 = target: T2, Caspase-7 (Homo sapiens, UniProt P55210); assay: Inhibition of human recombinant caspase 7 assessed as accumulation of fluorogenic product by fluorometric assay
T2 sequence (P55210 whole entry): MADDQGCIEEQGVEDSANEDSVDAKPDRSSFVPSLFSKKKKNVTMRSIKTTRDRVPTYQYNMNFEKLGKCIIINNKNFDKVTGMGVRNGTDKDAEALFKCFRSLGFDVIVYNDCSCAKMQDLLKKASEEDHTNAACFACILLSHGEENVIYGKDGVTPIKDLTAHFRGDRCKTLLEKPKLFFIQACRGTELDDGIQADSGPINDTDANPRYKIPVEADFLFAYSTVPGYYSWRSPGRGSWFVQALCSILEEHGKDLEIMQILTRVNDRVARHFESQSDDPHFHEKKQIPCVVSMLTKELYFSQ

Caspase-3 = target: T3, Caspase-3 (Homo sapiens, UniProt P42574); assay: Inhibition of human recombinant caspase 3 assessed as accumulation of fluorogenic product by fluorometric assay
T3 sequence (P42574 whole entry): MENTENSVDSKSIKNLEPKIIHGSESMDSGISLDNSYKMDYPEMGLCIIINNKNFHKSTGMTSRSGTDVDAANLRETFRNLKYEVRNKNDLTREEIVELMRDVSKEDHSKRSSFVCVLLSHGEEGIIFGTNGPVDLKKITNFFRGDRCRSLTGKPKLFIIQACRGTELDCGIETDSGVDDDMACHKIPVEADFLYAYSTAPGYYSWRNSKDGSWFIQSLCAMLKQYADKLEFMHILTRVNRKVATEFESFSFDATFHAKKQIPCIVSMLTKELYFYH

Caspase-8 = Caspase-8 (Homo sapiens, UniProt Q14790); assay: Inhibition of human recombinant caspase 8 assessed as accumulation of fluorogenic product by fluorometric assay
Caspase-8, sequence (Q14790 217-374 limits assumed): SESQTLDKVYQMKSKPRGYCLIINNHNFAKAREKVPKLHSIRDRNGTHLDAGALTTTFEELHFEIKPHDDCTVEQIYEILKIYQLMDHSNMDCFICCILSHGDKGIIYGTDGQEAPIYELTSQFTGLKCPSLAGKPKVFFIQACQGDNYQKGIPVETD
Caspase-8, sequence (Q14790 385-479 limits assumed): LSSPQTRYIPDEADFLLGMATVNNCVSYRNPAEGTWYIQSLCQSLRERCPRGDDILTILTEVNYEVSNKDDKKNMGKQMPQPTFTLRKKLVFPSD

Caspase-1 = target: T4, Caspase-1 (Homo sapiens, UniProt P29466); assay: Inhibition of human recombinant caspase 1 assessed as accumulation of fluorogenic product by fluorometric assay
T4 sequence (P29466 whole entry): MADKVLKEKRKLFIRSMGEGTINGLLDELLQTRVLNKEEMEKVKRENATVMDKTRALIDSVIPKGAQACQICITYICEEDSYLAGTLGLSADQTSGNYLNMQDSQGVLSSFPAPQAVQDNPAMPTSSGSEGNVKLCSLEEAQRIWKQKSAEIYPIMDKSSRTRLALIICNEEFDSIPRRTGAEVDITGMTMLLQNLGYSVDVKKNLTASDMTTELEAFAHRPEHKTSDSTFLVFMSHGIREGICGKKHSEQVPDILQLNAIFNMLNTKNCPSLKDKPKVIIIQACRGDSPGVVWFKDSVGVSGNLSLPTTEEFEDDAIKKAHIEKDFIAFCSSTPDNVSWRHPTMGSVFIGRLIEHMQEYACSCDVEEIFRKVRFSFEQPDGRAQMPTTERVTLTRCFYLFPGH

Homo sapiens = species: Homo sapiens; assay: Selectivity for human recombinant caspase 3 over human recombinant caspase 6

| SMILES | IC50 (Caspase-6) | IC50 (Caspase-7) | IC50 (Caspase-3) | IC50 (Caspase-8) | IC50 (Caspase-1) | fold change (FC) (Homo sapiens) |
| --- | --- | --- | --- | --- | --- | --- |
| COc1ccc(CN2C(=O)C(=C(C#N)C#N)c3cc(S(=O)(=O)N4CCSCC4)ccc32)cc1 | 188 nM | 1890 nM | 1670 nM | > 50000 nM | 4300 nM |  |
| N#CC(C#N)=C1C(=O)N(Cc2ccc(Cl)c(Cl)c2)c2ccc(S(=O)(=O)N3CCCCC3)cc21 | 568 nM | 3420 nM | 529 nM | > 50000 nM | > 10000 nM |  |
| N#CC(C#N)=C1C(=O)N(Cc2ccc(Cl)c(Cl)c2)c2ccc(S(=O)(=O)N3CCC3)cc21 | 280 nM | 340 nM | 365 nM | > 50000 nM | > 10000 nM |  |
| N#CC(C#N)=C1C(=O)N(Cc2ccc(Cl)c(Cl)c2)c2ccc(S(=O)(=O)N3CCSCC3)cc21 | 230 nM | 5100 nM | 1990 nM | > 50000 nM | 5350 nM |  |
| N#CC(C#N)=C1C(=O)N(Cc2ccccc2)c2ccc(S(=O)(=O)N3CCC3)cc21 | 156 nM | 248 nM | 323 nM | > 50000 nM | 3300 nM |  |
| COc1ccc(CN2C(=O)C(=C(C#N)C#N)c3cc(S(=O)(=O)N4CCC4)ccc32)cc1 | 197 nM | 471 nM | 718 nM | > 50000 nM | 4180 nM |  |
| COc1ccc(CN2C(=O)C(=C(C#N)C#N)c3cc(S(=O)(=O)N4CCOCC4)ccc32)cc1 | 453 nM | 4100 nM | 4630 nM | > 50000 nM | 6820 nM |  |
| N#CC(C#N)=C1C(=O)N(Cc2ccccc2)c2ccc(S(=O)(=O)N3CCCC3)cc21 | 241 nM | 587 nM | 671 nM | > 50000 nM | 4700 nM |  |
| N#CC(C#N)=C1C(=O)N(Cc2ccccc2)c2ccc(S(=O)(=O)N3CCOCC3)cc21 | 425 nM | 4470 nM | 4700 nM | > 50000 nM |  |  |
| COc1ccc(CN2C(=O)C(=C(C#N)C#N)c3cc(S(=O)(=O)N4CCCCC4)ccc32)cc1 | 545 nM | 1150 nM | 1400 nM | > 50000 nM | > 10000 nM |  |
| N#CC(C#N)=C1C(=O)N(Cc2ccc(Cl)c(Cl)c2)c2ccc(S(=O)(=O)N3CCCC3)cc21 | 468 nM | 471 nM | 724 nM | > 50000 nM | > 10000 nM |  |
| COc1ccc(CN2C(=O)C(=C(C#N)C#N)c3cc(S(=O)(=O)N4CCCC4)ccc32)cc1 | 358 nM | 443 nM | 673 nM | > 50000 nM | 4700 nM |  |
| CC(=O)N[C@@H](CC(=O)O)C(=O)N[C@@H](CCC(=O)O)C(=O)N[C@H](C(=O)N[C@H](C=O)CC(=O)O)C(C)C |  | 2.95 nM |  |  |  |  |
| N#CC(C#N)=C1C(=O)N(Cc2ccc(Cl)c(Cl)c2)c2ccc(S(=O)(=O)N3CCOCC3)cc21 | 592 nM | 7900 nM | 1550 nM | > 50000 nM | 5350 nM |  |
| O=C1C(=O)N(Cc2ccccc2)c2ccc(S(=O)(=O)N3CCSCC3)cc21 | 12800 nM | 1480 nM | 1030 nM | > 50000 nM | > 10000 nM | 10 |
| O=C1C(=O)N(Cc2ccccc2)c2ccc(S(=O)(=O)N3CCC3)cc21 | 9830 nM | 132 nM | 114 nM | > 50000 nM | > 10000 nM |  |
| N#CC(C#N)=C1C(=O)N(Cc2ccccc2)c2ccc(S(=O)(=O)N3CCCCC3)cc21 | 325 nM | 878 nM | 583 nM | > 50000 nM |  |  |
| O=C1C(=O)N(Cc2ccc(Cl)c(Cl)c2)c2ccc(S(=O)(=O)N3CCOCC3)cc21 | > 15000 nM | 2230 nM | 1430 nM | > 50000 nM | > 25000 nM |  |
| N#CC(C#N)=C1C(=O)N(Cc2ccccc2)c2ccc(S(=O)(=O)N3CCSCC3)cc21 | 151 nM | 1620 nM | 1450 nM | > 50000 nM | 4580 nM |  |
| O=C1Nc2ccc(S(=O)(=O)N3CCOCC3)cc2C1=O | > 20000 nM | > 20000 nM | > 20000 nM | > 50000 nM | > 25000 nM |  |
| O=C1C(=O)N(Cc2ccccc2)c2ccc(S(=O)(=O)N3CCC[C@H]3COc3ccccc3)cc21 | > 5000 nM |  | 14.5 nM |  |  |  |
